# “And” between values parts separate entries of the source, which are not always exact repeats. Equal values may be shown once. Read-outs that look alike come from different tables or passages of the source.
# Legend:
# Format in all cases: cell-based
# [1] = tested on: Acinetobacter baumannii; assay: MIC/MBC of nanoemulsions against gram-negative isolates (CLSI, alamar blue); conditions: for % resistant / % susceptible / MIC50: Acinetobacter baumannii (n = 5); for MIC50: nanoemulsions in the presence of 5 mM EDTA
# [2] = tested on: Stenotrophomonas maltophilia; assay: as above; conditions: for MIC50: Stenotrophomonas maltophilia (n = 5), nanoemulsions in the presence of 5 mM EDTA
# [3] = tested on: Haemophilus influenzae; assay: Susceptibility (MIC/MBC) of H. influenzae clinical isolates; conditions: for MIC / MIC90: Haemophilus influenzae; for MIC90 / MIC Range: H. influenzae isolates of Table 6
# [4] = tested on: methicillin-resistant Staphylococcus aureus (MRSA); assay: Susceptibility (MIC/MBC) of MRSA clinical isolates
# [5] = tested on: Proteus mirabilis; assay: MIC/MBC of nanoemulsions against gram-negative isolates (CLSI, alamar blue); conditions: Proteus mirabilis (n = 5); for MIC50 / MIC Range: nanoemulsions in the presence of 5 mM EDTA
# [6] = tested on: Klebsiella pneumoniae; assay: as above; conditions: Klebsiella pneumoniae (n = 5); for MIC50 / MIC Range: nanoemulsions in the presence of 5 mM EDTA; for MIC Range: in µg/mL
# [7] = tested on: Escherichia coli; assay: as above; conditions: Escherichia coli (n = 5)
# [8] = tested on: Pseudomonas aeruginosa; assay: as above; conditions: Pseudomonas aeruginosa (n = 5); for MIC50 / MIC Range: nanoemulsions in the presence of 5 mM EDTA
# [9] = tested on: Burkholderia cepacia; assay: as above; conditions: Burkholderia cepacia (n = 5), nanoemulsions in the presence of 5 mM EDTA; for MIC Range: in µg/mL
# [10] = strain 30, nanoemulsion values as μg CPC/ml or μg BA/ml
# [11] = strain 32, nanoemulsion values as μg CPC/ml or μg BA/ml
# [12] = strain 33, nanoemulsion values as μg CPC/ml or μg BA/ml
# [13] = strain 34, nanoemulsion values as μg CPC/ml or μg BA/ml
# [14] = strain 35, nanoemulsion values as μg CPC/ml or μg BA/ml
# [15] = strain 36, nanoemulsion values as μg CPC/ml or μg BA/ml
# [16] = strain 37, nanoemulsion values as μg CPC/ml or μg BA/ml
# [17] = strain 38, nanoemulsion values as μg CPC/ml or μg BA/ml
# [18] = strain 41, nanoemulsion values as μg CPC/ml or μg BA/ml
# [19] = strain 42, nanoemulsion values as μg CPC/ml or μg BA/ml
# [20] = strain 49247, nanoemulsion values as μg CPC/ml (P4075EC, W205EC) or μg BA/ml (W205GBA2)
# [21] = nanoemulsion values as μg CPC/ml or μg BA/ml
# [22] = Staphylococcus aureus, MRSA isolates, read-out: MIC90
# [23] = silver nitrate column, 29 MRSA clinical isolates, rank 15
# [24] = silver nitrate column, 29 MRSA clinical isolates, rank 26
# [25] = silver nitrate column, individual MRSA clinical isolates by rank order 1-29
# [26] = nanoemulsions in the presence of 5 mM EDTA
compound,measurement,setting,value
"O=C(O)CN(CCN(CC(=O)O)CC(=O)O)CC(=O)O [EDTA, ethylenediaminetetraacetic acid]",strains inhibited by EDTA alone,"[1]; 5 isolates, 5 mM EDTA",3 strains
same,strains inhibited by EDTA alone,"[2]; 5 isolates, 5 mM EDTA",5 strains
CC1(C)S[C@@H]2[C@H](NC(=O)[C@H](N)c3ccccc3)C(=O)N2[C@H]1C(=O)O [ampicillin],MIC,[3]; [10],0.25 µg/mL
same,MIC,[3]; [11],32 µg/mL
same,MIC,[3]; [12],0.25 µg/mL
same,MIC,[3]; [13],> 32 µg/mL
same,MIC,[3]; [14],0.25 µg/mL
same,MIC,[3]; [15],0.125 µg/mL
same,MIC,[3]; [16],> 32 µg/mL
same,MIC,[3]; [17],0.25 µg/mL
same,MIC,[3]; [18],> 32 µg/mL
same,MIC,[3]; [19],> 32 µg/mL
same,MIC,[3]; [20],4 µg/mL
same,MIC90,[3]; [21],> 32 µg/mL
CC[C@H]1OC(=O)[C@H](C)[C@@H](O[C@H]2C[C@@](C)(OC)[C@@H](O)[C@H](C)O2)[C@H](C)[C@@H](O[C@@H]2O[C@H](C)C[C@H](N(C)C)[C@H]2O)[C@](C)(O)C[C@@H](C)CN(C)[C@H](C)[C@@H](O)[C@]1(C)O [azithromycin],susceptibility of the majority of isolates by MIC90 values,[3]; H. influenzae,susceptible
same,MIC Range,[3]; [21],1 to 8 µg/mL
same,MIC,[3]; [10],2 µg/mL
same,MIC,[3]; [11],8 µg/mL
same,MIC,[3]; [12],1 µg/mL
same,MIC,[3]; [13],1 µg/mL
same,MIC,[3]; [14],1 µg/mL
same,MIC,[3]; [15],2 µg/mL
same,MIC,[3]; [16],1 µg/mL
same,MIC,[3]; [17],1 µg/mL
same,MIC,[3]; [18],2 µg/mL
same,MIC,[3]; [19],1 µg/mL
same,MIC,[3]; [20],1 µg/mL
same,MIC90,[3]; [21],2 µg/mL
CCC[C@@H]1C[C@@H](C(=O)N[C@@H]([C@H]2O[C@H](SC)[C@H](O)[C@@H](O)[C@H]2O)[C@H](C)Cl)N(C)C1 [clindamycin],MIC90,[4]; [22],> 64 µg/mL
same,MIC Range,[3]; [21],4 to 16 µg/mL
same,MIC,[3]; [10],16 µg/mL
same,MIC,[3]; [11],8 µg/mL
same,MIC,[3]; [12],16 µg/mL
same,MIC,[3]; [13],16 µg/mL
same,MIC,[3]; [14],8 µg/mL
same,MIC,[3]; [15],16 µg/mL
same,MIC,[3]; [16],4 µg/mL
same,MIC,[3]; [17],16 µg/mL
same,MIC,[3]; [18],8 µg/mL
same,MIC,[3]; [19],4 µg/mL
same,MIC,[3]; [20],8 µg/mL
same,MIC90,[3]; [21],16 µg/mL
O=[N+]([O-])[O-].[Ag+] [silver nitrate],MIC90,[4]; MRSA isolates,0.00063%
same,MBC50(15),[4]; [23],0.0025 µg/mL
same,MIC50(15),[4]; [23],0.00031 µg/mL
same,MBC90(26),[4]; [24],>0.01 µg/mL
same,MIC90(26),[4]; [24],0.00063 µg/mL
same,MBC,[4]; [25],0.01 μg/ml and >0.01 μg/ml (3×) and >0.005 μg/ml (3×) and 0.005 μg/ml and 0.0025 μg/ml (12×) and 0.00125 μg/ml (9×)
same,MIC,[4]; [25],0.0025 μg/ml and 0.00125 μg/ml (2×) and 0.00626 μg/ml (7×) and 0.00312 μg/ml (19×)
Cc1cc(NS(=O)(=O)c2ccc(N)cc2)no1 [sulfamethoxazole],MIC90,[4]; [22],4 µg/mL
COc1cc(Cc2cnc(N)nc2N)cc(OC)c1OC [trimethoprim],MIC90,[4]; [22],0.5 µg/mL
CN[C@H](CC(C)C)C(=O)N[C@H]1C(=O)N[C@@H](CC(N)=O)C(=O)N[C@H]2C(=O)N[C@H]3C(=O)N[C@H](C(=O)N[C@H](C(=O)O)c4cc(O)cc(O)c4-c4cc3ccc4O)[C@H](O)c3ccc(c(Cl)c3)Oc3cc2cc(c3O[C@@H]2O[C@H](CO)[C@@H](O)[C@H](O)[C@H]2O[C@H]2C[C@](C)(N)[C@H](O)[C@H](C)O2)Oc2ccc(cc2Cl)[C@H]1O [vancomycin],cidality,"[4]; MRSA, ratio of MBC90/MIC90",bactericidal (A compound or nanoemulsion is defined as bactericidal if its MBC/MIC ratio was ˜4)
same,MIC90,"[4]; Staphylococcus aureus, MRSA",1 µg/mL
Gentamicin,% resistant,[5],0.0%
same,% susceptible,[5],100.0%
same,MIC50,[5],≤ 2 µg/mL
same,MIC Range,[5]; in µg/mL,<=2
same,% resistant,[6],0.0%
same,% susceptible,[6],100.0%
same,MIC50,[6],≤ 2 µg/mL
same,MIC Range,[6],<=2
same,% resistant,[7],20.0%
same,% susceptible,[7],80.0%
same,MIC50,[7]; [26],≤ 2 µg/mL
same,% resistant,[1],20.0%
same,% susceptible,[1],80.0%
same,MIC50,[1],≤ 2 µg/mL
same,MIC50,[2],> 8 µg/mL
same,% resistant,[8],0.0%
same,% susceptible,[8],100.0%
same,MIC50,[8],≤ 2 µg/mL
same,MIC Range,[8],<=2-4 ^
same,MIC50,[9],> 8 µg/mL
same,MIC Range,[9],>8
Piperacillin/tazobactam,% resistant,[5],0.0%
same,% susceptible,[5],100.0%
same,MIC50,[5],≤ 0.5 µg/mL
same,MIC Range,[5],<=0.5-1 ^
same,% resistant,[6],0.0%
same,% susceptible,[6],80.0%
same,MIC50,[6],2 µg/mL
same,MIC Range,[6],1-64
same,% resistant,[7],0.0%
same,% susceptible,[7],100.0%
same,MIC50,[7]; [26],2 µg/mL
same,MIC Range,"[7]; nanoemulsions in the presence of 5 mM EDTA, in µg/mL",1-8
same,% resistant,[1],20.0%
same,% susceptible,[1],80.0%
same,MIC50,[1],2 µg/mL
same,MIC50,[2],> 64 µg/mL
same,% resistant,[8],0.0%
same,% susceptible,[8],100.0%
same,MIC50,[8],2 µg/mL
same,MIC Range,[8]; in µg/mL,2-16
same,MIC50,[9],4 µg/mL
same,MIC Range,[9],2-32

# Reference: patent US20100092526A1, “NANOEMULSION THERAPEUTIC COMPOSITIONS AND METHODS OF USING THE SAME” (NanoBio Corporation, priority 2008, published 2010)
